According to patent US8933224B2, “Triazine derivatives” (Pfizer Inc., priority 2013, dated 2015):

Biological target: rat PDE10 enzyme (Rattus norvegicus (Rat), UniProt Q9QYJ6)
Assay: PDE10 scintillation proximity assay (SPA), inhibition of rat PDE10 enzyme activity
Type: biochemical
Conditions: geometric mean of 2-4 determinations unless otherwise indicated (b: ≧5 determinations; c: single determination)
Method: PDE10 activity was measured using a scintillation assay (SPA-based method) similar to that previously described by Seeger, T. F. et al., Brain Research 985 (2003) 113-126. The compounds' relative activity as PDE10 inhibitors was investigated by assaying a fixed amount of enzyme in the presence of the test compound and low substrate concentration (cAMP) such that an IC50 could be determined. […] The assay is performed in a 384-well format with 50 μL assay buffer (50 mM TRIS pH 7.5; 1.3 mM MgCl2; 0.01% Brij) containing enough PDE10 to convert ˜20% of 20 nM ^3H-cAMP, and a range of inhibitors. Reactions are incubated for 30 minutes at 25° C. The addition of 20 μL of 8 mg/ml yttrium silicate SPA beads (PerkinElmer) stops the reaction. The plates are sealed (TopSeal, PerkinElmer) and the beads are allowed to settle for 8 hrs, after which they are read on the Trilux Microbeta overnight. ^1Rat enzyme preparation:^2Human enzyme preparation:
The recombinant Bacmid was isolated and used to transfect sf9 insect cells to generate a viral stock. To generate cell paste for purification, sf21 cells were infected with the virus stock and cells were harvested 72 hours after infection as described in Seeger, T. F. et al., Brain Research 985 (2003) 113-126. Insect cell paste was lysed and after centrifugation, the supernatant was chromatographed on Ni-NTA agarose (Qiagen) followed by Mono Q (GE Healthcare Life Sciences) as described in Seeger, T. F. et al., Brain Research 985 (2003) 113-126.

Sequence of rat PDE10 enzyme (Q9QYJ6 24-794): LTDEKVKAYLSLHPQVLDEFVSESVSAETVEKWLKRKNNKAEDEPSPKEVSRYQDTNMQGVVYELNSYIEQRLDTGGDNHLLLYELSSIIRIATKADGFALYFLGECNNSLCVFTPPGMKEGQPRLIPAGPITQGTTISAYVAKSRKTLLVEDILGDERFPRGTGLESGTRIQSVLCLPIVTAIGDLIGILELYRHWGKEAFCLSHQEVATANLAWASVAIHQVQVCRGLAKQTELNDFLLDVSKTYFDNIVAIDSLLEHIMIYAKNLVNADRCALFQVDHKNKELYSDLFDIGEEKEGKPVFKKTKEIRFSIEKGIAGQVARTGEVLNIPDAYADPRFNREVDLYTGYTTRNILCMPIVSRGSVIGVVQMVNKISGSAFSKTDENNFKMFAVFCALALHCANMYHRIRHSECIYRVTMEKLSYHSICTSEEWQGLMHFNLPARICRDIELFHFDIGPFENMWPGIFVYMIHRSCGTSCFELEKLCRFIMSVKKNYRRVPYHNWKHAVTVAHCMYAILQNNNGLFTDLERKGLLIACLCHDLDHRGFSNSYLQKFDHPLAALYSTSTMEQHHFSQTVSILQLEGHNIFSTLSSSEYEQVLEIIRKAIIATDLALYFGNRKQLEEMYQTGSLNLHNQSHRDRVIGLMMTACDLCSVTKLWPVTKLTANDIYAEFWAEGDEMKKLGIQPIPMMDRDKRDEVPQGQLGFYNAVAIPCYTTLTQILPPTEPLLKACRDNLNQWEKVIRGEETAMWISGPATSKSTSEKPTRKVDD

`Cc1nc(-c2ccc(F)cc2Cl)c2c(N3CCc4nc(C5CC5)ncc4C3)ncnn12` [Example 7, 6-[5-(2-Chloro-4-fluorophenyl)-7-methylimidazo[5,1-f][1,2,4]triazin-4-yl]-2-cyclopropyl-5,6,7,8-tetrahydropyrido[4,3-d]pyrimidine] gave an IC50 of 8.44 nM.
For `Cc1ccccc1-c1nc(C)n2ncnc(N3CCc4c(c(C(C)C)nn4C)C3)c12` [Example 10, 4-(3-Isopropyl-1-methyl-1,4,6,7-tetrahydro-5H-pyrazolo[4,3-c]pyridin-5-yl)-7-methyl-5-(2-methylphenyl)imidazo[5,1-f][1,2,4]triazine], the IC50 was 0.56 nM.
`COc1cc2c(cc1OC)CN(c1ncnn3c(C)nc([C@H]4CCOC4)c13)CC2` [Example 14, 6,7-dimethoxy-2-{7-methyl-5-[(3R)-tetrahydrofuran-3-yl]imidazo[5,1-f][1,2,4]triazin-4-yl}-1,2,3,4-tetrahydroisoquinoline] gave an IC50 of 1.62 nM.
`COc1cc2c(cc1OC)CN(c1ncnn3c(C)nc([C@@H]4CCOC4)c13)CC2` [Example 15, 6,7-dimethoxy-2-{7-methyl-5-[(3S)-tetrahydrofuran-3-yl]imidazo[5,1-f][1,2,4]triazin-4-yl}-1,2,3,4-tetrahydroisoquinoline] was tested, and the IC50 was 0.716 nM.
For `Cc1nc([C@@H]2CCOC2)c2c(N3CCc4nc(C5CC5)ncc4C3)ncnn12` [Example 16, 2-cyclopropyl-6-{7-methyl-5-[(3S)-tetrahydrofuran-3-yl]imidazo{5,1-f][1,2,4]triazin-4-yl}-5,6,7,8-tetrahydropyrido[4,3-d]pyrimidine], the IC50 was 6.55 nM.
`COc1ccc2c(c1OC)CN(c1ncnn3c(C)nc([C@@H]4CCOC4)c13)CC2` [Example 17, 7,8-dimethoxy-2-{7-methyl-5-[(3S)-tetrahydrofuran-3-yl]imidazo[5,1-f][1,2,4]triazin-4-yl}-1,2,3,4-tetrahydroisoquinoline] was tested, and the IC50 was < 0.24 nM.
`Cc1nc(C2CCCO2)c2c(N3CCc4nc(C5CC5)ncc4C3)ncnn12` (stereo not drawn) [Example 22, 2-cyclopropyl-6-[7-methyl-5-(tetrahydrofuran-2-yl)imidazo[5,1-f][1,2,4]triazin-4-yl]-5,6,7,8-tetrahydropyrido[4,3-d]pyrimidine] gave an IC50 of 5.2 nM.
`Cc1ccccc1-c1nc(C)n2ncnc(N3CCc4nc(C5CC5)ncc4C3)c12` [Example 24, 2-cyclopropyl-6-[7-methyl-5-(2-methylphenyl)imidazo[5,1-f][1,2,4]triazin-4-yl]-5,6,7,8-tetrahydropyrido[4,3-d]pyrimidine] was tested, and the IC50 was < 3.29 nM.
With `Cc1nc([C@H]2CCOC2)c2c(N3CCc4nn(C5CC5)cc4C3)ncnn12` [Example 26, 4-(2-cyclopropyl-2,4,6,7-tetrahydro-5H-pyrazolo[4,3-c]pyridin-5-yl)-7-methyl-5-[(3R)-tetrahydrofuran-3-yl]imidazo[5,1-f][1,2,4]triazine] the IC50 was < 2.26 nM.
Compound `Cc1nc([C@@H]2CCOC2)c2c(N3CCc4noc(C(C)C)c4C3)ncnn12` [Example 30, 7-methyl-4[3-(propan-2-yl)-6,7-dihydro[1,2]oxazolo[4,3-c]pyridin-5(4H)-yl]-5-[(3S)-tetrahydrofuran-3-yl]imidazo[5,1-f][1,2,4]triazine] has an IC50 of 3.52 nM.
Work on `CCc1onc2c1CN(c1ncnn3c(C)nc([C@@H]4CCOC4)c13)CC2` [Example 31] yielded an IC50 of 3.73 nM.
`CCc1noc2c1CN(c1ncnn3c(C)nc([C@@H]4CCOC4)c13)CC2` [Example 32] gave an IC50 of 3.74 nM.
Work on `Cc1onc2c1CN(c1ncnn3c(C)nc([C@@H]4CCOC4)c13)CC2` [Example 33, 7-methyl-4-(3-methyl-6,7-dihydro[1,2]oxazolo[4,3-c]pyridin-5(4H)-yl)-5-[(3S)-tetrahydrofuran-3-yl]imidazo[5,1-f][1,2,4]triazine] yielded an IC50 of 23.3 nM.
Work on `Cc1noc2c1CN(c1ncnn3c(C)nc([C@@H]4CCOC4)c13)CC2` [Example 34, 7-methyl-4-(3-methyl-6,7-dihydro[1,2]oxazolo[4,5-c]pyridin-5(4H)-yl)-5-[(3S)-tetrahydrofuran-3-yl]imidazo[5,1-f][1,2,4]triazine] yielded an IC50 of 16.5 nM.
For `Cc1nc2c(c(OC(F)F)n1)CN(c1ncnn3c(C)nc([C@@H]4CCOC4)c13)CC2` [Example 36, 4-(difluoromethoxy)-2-methyl-6-{7-methyl-5-[(3S)-tetrahydrofuran-3-yl]imidazo[5,1-f][1,2,4]triazin-4-yl}-5,6,7,8-tetrahydropyrido[4,3-d]pyrimidine], the IC50 was 0.44 nM.
In the case of `COc1nc(C2CC2)nc2c1CN(c1ncnn3c(C)nc([C@@H]4CCOC4)c13)CC2` [Example 39, 2-cyclopropyl-4-methoxy-6-{7-methyl-5-[(3S)-tetrahydrofuran-3-yl]imidazo[5,1-f][1,2,4]triazin-4-yl}-5,6,7,8-tetrahydropyrido[4,3-d]pyrimidine], the IC50 is reported as 0.193 nM.
`Cc1nc(C2CC2)nc2c1CN(c1ncnn3c(C)nc([C@@H]4CCOC4)c13)CC2` [Example 41, 2-cyclopropyl-4-methyl-6-{7-methyl-5-[(3S)-tetrahydrofuran-3-yl]imidazo[5,1-f][1,2,4]triazin-4-yl}-5,6,7,8-tetrahydropyrido[4,3-d]pyrimidine] was tested, and the IC50 was < 0.175 nM.
With `COc1cc2c(cc1OC)CN(c1ncnn3c(C)nc(-c4ccccc4F)c13)CC2` [Example 42, 2-[5-(2-fluorophenyl)-7-methylimidazo[5,1-f][1,2,4]triazin-4-yl]-6,7-dimethoxy-1,2,3,4-tetrahydroisoquinoline] the IC50 was < 3.23 nM.
For `Cc1nc(-c2ccccc2F)c2c(N3CCc4c(c(C(C)C)nn4C)C3)ncnn12` [Example 43, 5-(2-fluorophenyl)-4-(3-isopropyl-1-methyl-1,4,6,7-tetrahydro-5H-pyrazolo[4,3-c]pyridin-5-yl)-7-methylimidazo[5,1-f][1,2,4]triazine], the IC50 was 0.465 nM.
`Cc1nc(C2CCCO2)c2c(N3CCc4c(c(C(C)C)nn4C)C3)ncnn12` (stereo not drawn) [Example 45, 4-(3-isopropyl-1-methyl-1,4,6,7-tetrahydro-5H-pyrazolo[4,3-c]pyridin-5-yl)-7-methyl-5-(tetrahydrofuran-2-yl)imidazo[5,1-f][1,2,4]triazine] was tested, and the IC50 was 3.84 nM.
Compound `Cc1nc(-c2ccccc2F)c2c(N3CCc4noc(C5CC5)c4C3)ncnn12` [Example 46, 4-(3-cyclopropyl-6,7-dihydroisoxazolo[4,3-c]pyridin-5(4H)-yl)-5-(2-fluorophenyl)-7-methylimidazo[5,1-f][1,2,4]triazine] has an IC50 of 1.98 nM.
For `CCc1nn(C)c2c1CN(c1ncnn3c(C)nc(CC(C)C)c13)CC2` [Example 48, 4-(3-ethyl-1-methyl-1,4,6,7-tetrahydro-5H-pyrazolo[4,3-c]pyridin-5-yl)-5-isobutyl-7-methylimidazo[5,1-f][1,2,4]triazine], the IC50 was < 1 nM.
In the case of `Cc1nc([C@H]2CCOC2)c2c(N3CCc4cc(Cl)c(Cl)cc4C3)ncnn12` [Example 51, 6,7-dichloro-2-{7-methyl-5-[(3R)-tetrahydrofuran-3-yl]imidazo[5,1-f][1,2,4]triazin-4-yl}-1,2,3,4-tetrahydroisoquinoline], the IC50 is reported as 13.5 nM.
In the case of `Cc1nc([C@@H]2CCOC2)c2c(N3CCc4nc(C5CC5)nc(O)c4C3)ncnn12` [Example 52, 2-cyclopropyl-6-{7-methyl-5-[(3S)-tetrahydrofuran-3-yl]imidazo[5,1-f][1,2,4]triazin-4-yl}-5,6,7,8-tetrahydropyrido[4,3-d]pyrimidin-4-ol], the IC50 is reported as 0.101 nM.
Work on `Cc1nc(-c2ccccc2F)c2c(N3CCc4nc(C5CC5)oc4C3)ncnn12` [Example 53, 4-(2-cyclopropyl-6,7-dihydro[1,3]oxazolo[5,4-c]pyridin-5(4H)-yl)-5-(2-fluorophenyl)-7-methylimidazo[5,1-f][1,2,4]triazine] yielded an IC50 of 1.79 nM.
`Cc1nc(CC(C)C)c2c(N3CCc4nc(C5CC5)oc4C3)ncnn12` [Example 54, 4-(2-cyclopropyl-6,7-dihydro[1,3]oxazolo[5,4-c]pyridin-5(4H)-yl)-5-isobutyl-7-methylimidazo[5,1-f][1,2,4]triazine] was tested, and the IC50 was 4.52 nM.
For `Cc1nc(CC(C)C)c2c(N3CCc4nc(C5CC5)ncc4C3)ncnn12` [Example 55, 2-cyclopropyl-6-(5-isobutyl-7-methylimidazo[5,1-f][1,2,4]triazin-4-yl)-5,6,7,8-tetrahydropyrido[4,3-d]pyrimidine], the IC50 was 2.19 nM.
Work on `Cc1nc([C@H]2CCOC2)c2c(N3CCc4nc(C5CC5)ncc4C3)ncnn12` [Example 56, 2-cyclopropyl-6-{7-methyl-5-[(3R)-tetrahydrofuran-3-yl]imidazo[5,1-f][1,2,4]triazin-4-yl}-5,6,7,8-tetrahydropyrido[4,3-d]pyrimidine] yielded an IC50 of 5.34 nM.
With `COc1cc2c(cc1OC)CN(c1ncnn3c(C)nc(C4CCOCC4)c13)CC2` [Example 59, 6,7-dimethoxy-2-[7-methyl-5-(tetrahydro-2H-pyran-4-yl)imidazo[5,1-f][1,2,4]triazin-4-yl]-1,2,3,4-tetrahydroisoquinoline] the IC50 was 3.1 nM.
In the case of `COc1ccc2c(c1OC)CN(c1ncnn3c(C)nc(C4CCOCC4)c13)CC2` [Example 60, 7,8-dimethoxy-2-[7-methyl-5-(tetrahydro-2H-pyran-4-yl)imidazo[5,1-f][1,2,4]triazin-4-yl]-1,2,3,4-tetrahydroisoquinoline], the IC50 is reported as 1.35 nM.
